# Measured values taken from patent publication US7482149B2 (priority 2003, dated 2009).
# Like-named read-outs stand apart in the source and are kept apart here.
# Tests used:
# [1] = tested on: SARS-CoV; type: cell-based
# [2] = tested on: Herpes simplex virus and varicella-zoster virus; details: cited from earlier work
# [3] = tested on: Cytomegalovirus; details: cited from earlier work
# [4] = tested on: Herpes simplex mutants; details: cited from earlier work
# [5] = tested on: HIV; details: cited from earlier work
# [6] = tested on: Herpes and poxviruses; details: cited from earlier work
# [7] = tested on: SARS-CoV; details: ribavirin concentrations that inhibit other sensitive viruses; preliminary; cited from earlier work
# [8] = tested on: HIV and other retroviruses; details: cited from earlier work
# [9] = tested on: Vero E6 cells
# [10] = tested on: Influenza virus; details: cited from earlier work
# [11] = complete (100%) inhibition of CPE up to highest concentration tested, 10,000 PFU/well, MOI 0.5, Vero E6
compound,measurement,setting,value
Nc1nc2c(ncn2COCCO)c(=O)[nH]1 [Acyclovir],Inhibition of Cytopathic Effect,[1],No
same,IC50,[2],0.01 to 13.5 µg/mL
NC12CC3CC(CC(C3)C1)C2 [Amantadine],Inhibition of Cytopathic Effect,[1],No
"Nc1nc(O)c2ncn(COC(CO)CO)c2n1 [Cymevene, Ganciclovir]",Inhibition of Cytopathic Effect,[1],No
same,IC50,[3],0.02 to 3.48 µg/mL
O=C(O)P(=O)(O)O [Foscarnet],Inhibition of Cytopathic Effect,[1],No
same,IC50,[3]; read-out: IC50,50 to 800 µM
same,IC50,[4],5 to 443 µM
CC(C)(C)NC(=O)[C@@H]1CN(Cc2cccnc2)CCN1C[C@@H](O)C[C@@H](Cc1ccccc1)C(=O)N[C@H]1c2ccccc2C[C@H]1O [Indinavir],Inhibition of Cytopathic Effect,[1]; [11],No
same,IC50,[5]; read-out: IC50,25 to 100 nM
Cc1c(O)cccc1C(=O)N[C@@H](CSc1ccccc1)[C@H](O)CN1C[C@H]2CCCC[C@H]2C[C@H]1C(=O)NC(C)(C)C [Nelfinavir],Inhibition of Cytopathic Effect,[1],No
same,EC95,[5],7 to 196 nM
CCOC(=O)C1=C[C@@H](OC(CC)CC)[C@H](NC(C)=O)[C@@H](N)C1 [Oseltamivir],Inhibition of Cytopathic Effect,[1],No
NC(=O)c1ncn([C@@H]2O[C@H](CO)[C@@H](O)[C@H]2O)n1 [Ribavirin],concentrations showing inhibitory activity,[1]; all three viral loads,0.5 to 5 mg/mL
same,Inhibition of Cytopathic Effect,[1]; [11],Yes
same,Complete inhibition of cytopathic effect (CIA100),[1]; virus load 100 PFU/well,"1,000 μg/mL"
same,Complete inhibition of cytopathic effect (CIA100),"[1]; virus load 1,000 PFU/well","10,000 μg/mL"
same,Complete inhibition of cytopathic effect (CIA100),"[1]; virus load 10,000 PFU/well","5,000 μg/mL"
same,Complete inhibition of cytopathic effect (CIA100),"[1]; virus load 10,000 PFU/well, listed as Ribavarin","10,000 μg/mL"
same,MIC,[6],3.2 to 50 µg/mL
same,inhibition of replication or cell-to-cell spread of the SARS-CoV,[7],do not inhibit
same,IC50,[8],25 to 100 µg/mL
same,cytotoxicity,[9],slight cytotoxicity
same,concentrations at which cytotoxic effects were observed,[9]; African green monkey,0.2 to 1 mg/mL
same,IC50,[10],1 to 25 µg/mL
CC(C)(C)NC(=O)[C@@H]1C[C@@H]2CCCC[C@@H]2CN1C[C@@H](O)[C@H](Cc1ccccc1)NC(=O)[C@H](CC(N)=O)NC(=O)c1ccc2ccccc2n1 [Saquinavir],Inhibition of Cytopathic Effect,[1],No
same,IC50,[5]; read-out: IC50,1 to 30 nM
CC(=O)N[C@H]1[C@H]([C@H](O)[C@H](O)CO)OC(C(=O)O)=C[C@@H]1N=C(N)N [Zanamivir],Inhibition of Cytopathic Effect,[1],No
same,IC50,[10]; read-out: IC50,0.005 to 16 µM
Cc1cn([C@H]2C[C@H](N=[N+]=[N-])[C@@H](CO)O2)c(=O)[nH]c1=O [Zidovudine],Inhibition of Cytopathic Effect,[1]; [11],No
same,IC50,[5],3 to 13 ng/mL
Interferon α2b,Inhibition of Cytopathic Effect,[1],No
